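Where inhibition never reached the appropriate level, the endpoint shown equals the highest concentration tested. Otherwise, values were interpolated linearly from a five-concentration, 48-hour dose response in 96-well plates. The concentration for 50% growth inhibition is given as GI50. The concentration for full growth arrest is given as TGI.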
Assays:
Assay in all cases: NCI-60 cell line screen, 48 h
SF-539 CNS = test system: SF-539 CNS
HCT-116 colon = test system: HCT-116 colon
SF-295 CNS = test system: SF-295 CNS
KM12 colon = test system: KM12 colon
CAKI-1 renal = test system: CAKI-1 renal
A498 renal = test system: A498 renal
SF-268 CNS = test system: SF-268 CNS
CCRF-CEM leukemia = test system: CCRF-CEM leukemia
UACC-257 melanoma = test system: UACC-257 melanoma
OVCAR-3 ovarian = test system: OVCAR-3 ovarian

SMILES	GI50 (SF-539 CNS)	TGI (SF-539 CNS)	GI50 (HCT-116 colon)	TGI (HCT-116 colon)	GI50 (SF-295 CNS)	TGI (SF-295 CNS)	GI50 (KM12 colon)	TGI (KM12 colon)	GI50 (CAKI-1 renal)	TGI (CAKI-1 renal)	GI50 (A498 renal)	TGI (A498 renal)	GI50 (SF-268 CNS)	TGI (SF-268 CNS)	GI50 (CCRF-CEM leukemia)	TGI (CCRF-CEM leukemia)	GI50 (UACC-257 melanoma)	TGI (UACC-257 melanoma)	GI50 (OVCAR-3 ovarian)	TGI (OVCAR-3 ovarian)
Cc1c(C)c2ccc(OC/C=C3\CCC(=O)O3)cc2oc1=O	16.1 µM	31.7 µM	13.3 µM	26.3 µM	20.5 µM	45 µM	13.8 µM	31.3 µM	15.3 µM	30.6 µM	17.9 µM	37.1 µM	17 µM	46.1 µM	17.4 µM	58.4 µM	15.9 µM	31.3 µM	15.8 µM	30.3 µM
CCO[C@@H]1C2C=CC(C2)[C@H]1[N+](=O)[O-] (stereo partly drawn)	–	> 100 µM	–	> 100 µM	–	> 100 µM	–	> 100 µM	–	> 100 µM	–	> 100 µM	–	> 100 µM	–	> 100 µM	–	> 100 µM	–	> 100 µM
Fc1ccc(Nc2nc(NCCNc3ccnc4cc(Cl)ccc34)nc(N3CCOCC3)n2)cc1	3.79 µM	15.2 µM	4.82 µM	17 µM	4.19 µM	15.3 µM	5.44 µM	18.7 µM	5.59 µM	19.5 µM	1.48 µM	8.47 µM	6.85 µM	20.5 µM	0.457 µM	16.3 µM	1.9 µM	3.65 µM	11.9 µM	24.5 µM
O=C(O)CCC1CCc2cccc3occ1c23 (stereo not drawn)	–	> 100 µM	–	> 100 µM	–	> 100 µM	–	> 100 µM	–	> 100 µM	–	> 100 µM	–	> 100 µM	–	> 100 µM	–	> 100 µM	–	> 100 µM
O=c1[nH]cnc2c(C3OC(CO)C(O)C3O)scc12 (stereo not drawn)	> 100 µM	> 100 µM	> 100 µM	> 100 µM	> 100 µM	> 100 µM	> 100 µM	> 100 µM	77.9 µM	> 100 µM	> 100 µM	> 100 µM	> 100 µM	> 100 µM	0.271 µM	1.16 µM	> 100 µM	> 100 µM	> 100 µM	> 100 µM
COc1cc2cc(Oc3ccc(NC(=O)c4ccc(Cl)c(C(F)(F)F)c4)cc3)c(C)nc2cc1OC	41.3 µM	> 100 µM	4.18 µM	88.9 µM	2.28 µM	25.7 µM	12.3 µM	> 100 µM	4.19 µM	46.2 µM	2.42 µM	86.3 µM	37.2 µM	> 100 µM	7.56 µM	> 100 µM	18.2 µM	97.5 µM	7.94 µM	54 µM
O=C(Cc1ccccc1)N/N=C(\C1=Nc2ccc([N+](=O)[O-])cc2NC1O)C(O)c1ccc([N+](=O)[O-])cc1 (stereo not drawn)	–	> 100 µM	–	> 100 µM	–	> 100 µM	–	–	–	> 100 µM	–	> 100 µM	–	> 100 µM	–	> 100 µM	–	> 100 µM	–	> 100 µM
CN(C)c1ccc(N=Nc2c([O-])ccc3ccccc23)cc1.[C-]#[O+].[C-]#[O+].[Ir]	16.3 µM	25.6 µM	19.5 µM	38.4 µM	> 100 µM	> 100 µM	> 100 µM	> 100 µM	16.2 µM	33.5 µM	> 100 µM	> 100 µM	26.9 µM	76.6 µM	8.08 µM	39.9 µM	5.71 µM	36 µM	20.7 µM	45.6 µM
O=C(NN1C(=O)CSC1c1ccc(Cl)cc1)c1[nH]c2ccc(F)cc2c1-c1ccccc1 (stereo not drawn)	6.08 µM	13.5 µM	1.87 µM	4.11 µM	2.86 µM	11.4 µM	1.61 µM	3.38 µM	5.07 µM	17.2 µM	2.98 µM	9.79 µM	2.51 µM	7.19 µM	2.17 µM	5.85 µM	10.5 µM	25.6 µM	1.85 µM	3.53 µM
O=C(Nc1ccc2c(c1)oc(=O)c1ccccc12)C(Cl)Cl	–	> 100 µM	–	> 100 µM	–	> 100 µM	–	> 100 µM	–	> 100 µM	–	> 100 µM	–	> 100 µM	–	> 100 µM	–	> 100 µM	–	73.8 µM
COC(=O)C(=O)C(C(=O)C=C(C)C)C(=O)C(=O)Nc1cccc(C(C)=O)c1 (stereo not drawn)	–	> 100 µM	–	> 100 µM	–	> 100 µM	–	> 100 µM	–	> 100 µM	–	> 100 µM	–	> 100 µM	–	> 100 µM	–	> 100 µM	–	> 100 µM
Cc1ncc([N+](=O)[O-])n1CCNC(=O)CCCn1cnc([N+](=O)[O-])n1	–	> 100 µM	–	> 100 µM	–	> 100 µM	–	> 100 µM	–	> 100 µM	–	> 100 µM	–	> 100 µM	–	> 100 µM	–	> 100 µM	–	> 100 µM
C/C(=N\NC(N)=O)C(CN(C)C)C(c1ccccc1)c1c(O)c2ccccc2oc1=O (stereo not drawn)	–	> 100 µM	–	> 100 µM	–	> 100 µM	–	> 100 µM	–	> 100 µM	–	> 100 µM	–	> 100 µM	–	> 100 µM	–	> 100 µM	–	> 100 µM
FC(F)(F)C12C34C=CC5(CCC6(C=CC1(CC3)O6)C52C(F)(F)F)O4 (stereo not drawn)	–	> 100 µM	–	> 100 µM	–	> 100 µM	–	> 100 µM	–	> 100 µM	–	> 100 µM	–	> 100 µM	–	> 100 µM	–	> 100 µM	–	> 100 µM
Fc1ccc(Nc2nccc(-c3c(-c4ccc(C(F)(F)F)cc4)nn4ncccc34)n2)cc1F	> 25 µM	> 25 µM	> 25 µM	> 25 µM	> 18.9 µM	> 25 µM	> 25 µM	> 25 µM	> 25 µM	> 25 µM	> 25 µM	> 25 µM	> 25 µM	> 25 µM	> 25 µM	> 25 µM	> 25 µM	> 25 µM	> 25 µM	> 25 µM
O=[N+]([O-])c1ccc(CS(=O)Cc2ccccc2)cc1 (stereo not drawn)	–	> 100 µM	–	> 100 µM	–	> 100 µM	–	> 100 µM	–	> 100 µM	–	> 100 µM	–	> 100 µM	–	> 100 µM	–	> 100 µM	–	> 100 µM
O=C(Nc1cc(Cl)c(Cl)cc1Cl)C(=O)C(C(=O)c1ccc(Cl)c(Cl)c1)C1OC(=O)c2ccccc21 (stereo not drawn)	–	7.89 µM	–	28.8 µM	–	36.6 µM	–	33.6 µM	–	46.3 µM	–	41.9 µM	–	41.8 µM	–	49.5 µM	–	27.5 µM	–	32.6 µM
COC(=O)C(Cc1nc2ccc(Cl)cc2[nH]c1=O)C(=O)C(=O)Nc1ccccc1[N+](=O)[O-] (stereo not drawn)	–	> 100 µM	–	> 100 µM	–	> 100 µM	–	> 100 µM	–	> 100 µM	–	> 100 µM	–	> 100 µM	–	> 100 µM	–	> 100 µM	–	> 100 µM
O=c1oc2ccc(Cl)cc2c(=O)n1-c1ccc(I)cc1F	0.231 µM	2.69 µM	0.255 µM	1.35 µM	1.03 µM	2.79 µM	2.21 µM	5.55 µM	0.172 µM	1.02 µM	0.055 µM	0.182 µM	0.26 µM	4.11 µM	0.702 µM	5.14 µM	0.137 µM	1.61 µM	0.177 µM	13.3 µM
CC(C)OC(=O)c1ccc2[nH]c(O)c(C(=Nc3ccc(N(C)C(=O)CN4CCN(C)CC4)cc3)c3ccccc3)c2c1	0.318 µM	1.16 µM	0.149 µM	1.28 µM	1.19 µM	2.47 µM	0.0251 µM	1.56 µM	0.0952 µM	1.12 µM	0.188 µM	1 µM	0.387 µM	2 µM	0.371 µM	3.33 µM	1.54 µM	3.57 µM	0.55 µM	2.02 µM
C[C@H](CS(C)(=O)=O)Nc1ncc2cc(Oc3ccc(F)cc3F)c(=O)n(C)c2n1	> 25 µM	> 25 µM	> 25 µM	> 25 µM	> 25 µM	> 25 µM	> 25 µM	> 25 µM	> 25 µM	> 25 µM	> 25 µM	> 25 µM	> 25 µM	> 25 µM	> 25 µM	> 25 µM	> 25 µM	> 25 µM	> 25 µM	> 25 µM
C=C(C)CCC(C)N1CCC(N2CCC(C(=O)NCCc3ccccc3)CC2)CC1 (stereo not drawn)	10.5 µM	23.8 µM	16.8 µM	> 100 µM	11.9 µM	26.1 µM	54.6 µM	> 100 µM	17.3 µM	75.4 µM	4.55 µM	44.4 µM	98 µM	> 100 µM	19.9 µM	> 100 µM	13.5 µM	30.5 µM	53.7 µM	> 100 µM
Cc1c2ccncc2c(C)c2c1[nH]c1ccc(OC(C)(C)C)cc12	–	2.93 µM	–	3.36 µM	–	4.87 µM	–	–	–	3.4 µM	–	26.2 µM	–	25.5 µM	–	5.77 µM	–	4.01 µM	–	3.42 µM

Reference: PubChem BioAssay (NCI)
